Values joined by “and” are separate entries in the source; they are usually repeats but may differ in a detail not shown here. Equal values may be shown once.
What was measured:
[1] = system: BRD4(1); parameters: method as in PMID 36378954; settings: cited from earlier work
[2] = target: T1, BRD4(1)^L94C (Homo sapiens, UniProt O60885, L94C); assay: Protein LCMS labeling assay 1; type: binding; settings: 50 μM compound, 10 µM protein, 37 °C, 4 h; mean of three ± s.e.m.; ND = not detectable
T1 construct: Characterization of His6-BRD4(1)L94C; made in house; host or cells: E. coli BL21 (DE3)
Experimental: The resulting library of 22 fragments was screened for BRD4(1)^L94C binding at a concentration of 50 μM using a protein LCMS assay (referred to as “labeling assay 1”). […] To assess the selectivity of the fragments for the labeling of C94, hits were also screened against BRD4(1)^WT under the same conditions. […] The acrylamide-based fragment, 12, labeled 98% of BRD4(1)^L94C after 4 h. While 95% of the protein was labeled once, 3% of the protein was labeled twice (Figure 5D). […] Fragment 14, designed by appending a β-dimethylaminomethyl acrylamide to the structure of 12, led to 74% of singly labeled BRD4(1)^L94C after 4 h with no labeling of BRD4(1)^WT observed (Table 1 and Figure 5E). […] However, only 9.9% of labeled BRD4(1)^L94C was observed, substantially lower than the 56% labeling observed for the corresponding 3-methyl regioisomer 10 (Table 1). […]
Assays were performed in 1.5 mL Eppendorf tubes at 37 °C and gently shaken, unless otherwise stated.
Experiments were performed in a protein LCMS assay buffer, with 10 µM protein, and 50 µM of the desired compound with a final DMSO concentration of 0.5% (Table S16). Time points were taken at 0, 1 and 4 h, unless otherwise stated, where a 20 µL sample of the reaction mix was taken, diluted with 100 µL Milli-Q water, and flash frozen. Samples were thawed immediately prior to LCMS analysis on a Waters Xevo G2-S system (Waters) fitted with a ProSwift™ RP-2H PSDVB Reversed Phase HPLC Column (Thermofisher). Data was analysed and processed using MassLynx. The total ion chromatograms (TIC) were extracted (region containing protein) and the summed scans were deconvoluted (using MaxEnt). Covalent labeling was calculated using intensities of the unlabeled and labeled protein (Equation 1). Figures were made using GraphPad Prism 7.0.
Table S16. Buffer composition for protein LCMS.
Buffer Reagent Composition Amount per 1 L
Protein LCMS Assay Buffer HEPES 25 mM 6.0 g
Protein Labelling = Intensity of Labelled Peak × 100

[3] = target: T1, BRD4(1)^L94C; assay: Fluorescent labeling of purified protein (CuAAC with TAMRA-PEG3-azide, in-gel fluorescence); type: binding; settings: 50 μM probe, 10 μM protein, 4 h, 37 °C, then CuAAC 1 h
Experimental: (§1) When 28, 29, 30, and 42 were incubated with either purified BRD4(1)^L94C or BRD4(1)^WT and subjected to a copper(I)-catalyzed alkyne–azide click reaction (CuAAC) reaction with the fluorescent TAMRA-PEG3-azide dye, all clickable probes labeled the mutant protein and could be visualized using fluorescence imaging of a gel (Figure 6).
Figure 6 Clickable probes 28, 29, 30, and 42 covalently label BRD4(1)^L94C and undergo a subsequent CuAAC reaction with TAMRA-PEG3 azide to fluorescently label the protein, as shown by in-gel fluorescence imaging. Compounds 28, 29, 30, 41, and 42 (50 μM) were incubated with purified BRD4(1)^L94C or BRD4(1)^WT (10 μM) for 4 h at 37 °C, followed by CuAAC reaction with TAMRA-PEG3 azide for 1 h and separation of components by SDS-PAGE. For all compounds other than 30, only labeling of BRD4(1)^L94C was observed. […]
Fluorescent labeling of purified proteins
Assays were performed in 1.5 mL Eppendorf tubes at 37 °C, and gently shaken, unless otherwise stated.
The desired click probe (50 µM) was incubated with protein (10 µM) in protein LCMS buffer for 4 h, after which TAMRA-PEG3-Azide (200 µM), TCEP·HCl (1 mM), TBTA (100 µM), and CuSO4 (1 mM) were added and incubated for a further 1 h at room temperature in the dark. A 25 µL sample of the […]
reaction mix was taken and 8 µL of Lamelli buffer added, and the samples denatured by heating at 95 °C for 10 min. Samples were separated by gel electrophoresis on NuPAGE™ 4–12%, Bis-Tris precast polyacrylamide gels (Thermofisher). Following electrophoresis, gels were stained for 15 min with InstantBlueTM Coomasie® stain (Abcam), destained, and imaged using Bio-rad molecular imager.
Bio-rad Image Lab 6.1 was used to process the data. […]
InstantBlueTM Coomasie® stain (Abcam), destained, and imaged using Bio-rad molecular imager. […]
MEM media. Cells were then harvested and lysed using the previously described protocol above. […]

[4] = target: T2, BRD4(1)^WT (Homo sapiens, UniProt O60885); assay: as above; type: binding; settings: 50 μM probe, 10 μM protein, 4 h, 37 °C, then CuAAC 1 h
T2 construct: Characterization of His6-BRD4(1)WT; made in house; host or cells: E. coli BL21 (DE3)
Experimental: as §1
Figure 6 Clickable probes 28, 29, 30, and 42 covalently label BRD4(1)^L94C and undergo a subsequent CuAAC reaction with TAMRA-PEG3 azide to fluorescently label the protein, as shown by in-gel fluorescence imaging. Compounds 28, 29, 30, 41, and 42 (50 μM) were incubated with purified BRD4(1)^L94C or BRD4(1)^WT (10 μM) for 4 h at 37 °C, followed by CuAAC reaction with TAMRA-PEG3 azide for 1 h and separation of components by SDS-PAGE. For all compounds other than 30, only labeling of BRD4(1)^L94C was observed.
50 mM DMSO stock solutions of the compounds were serially diluted, and dispensed into wells (5 μL).
The protein-peptide mixes (7 μL) for each combination were prepared following the specified final assay concentration (Table S19), and dispensed into wells. […]
Assays were performed in 1.5 mL Eppendorf tubes at room temperature, in the dark, and gently shaken, unless otherwise stated. […] Data was analysed and processed using MassLynx. […]
Gels were imaged for fluorescence using Bio-rad molecular imager and then stained for 15 min with […]

Row | SMILES | IC50 [1] [µM] | Labeled Protein (%) L94C 4 h [2] | Labeling of purified BRD4(1)^L94C, in-gel fluorescence [3] | Labeling of purified BRD4(1)^WT, in-gel fluorescence [4]
1 | Cc1noc(C)c1-c1ccccc1 [4-phenyl-3,5-dimethylisoxazole] | 50 |  |  | 
2 | C#CCN(C)C/C=C/C(=O)Nc1ccc(N2CCCC2=O)c(OC)c1 [Compound 41] |  | 2% and 2.0 ± 0.0% | no labeling | no labeling
